Data on five compounds can be found in article PMC11879280, “Antimicrobial activity of peptoids against Metallo-β-lactamase-producing Klebsiella pneumoniae, Acinetobacter baumannii, Pseudomonas aeruginosa, and other WHO priority pathogens, including Candida auris” (Journal of Applied Microbiology, 2025).

One experiment deals with Enterobacteriaceae. Nature of the experiment: Geometric mean MIC, therapeutic index and selectivity ratio, Enterobacteriaceae. Type of experiment: cell-based. Conditions: Enterobacteriaceae (E. coli, K. pneumoniae, and E. aerogenes). As to the method:
(§1) Briefly, bacteria were suspended in cation-adjusted Mueller–Hinton broth (CAMHB; Oxoid, UK) for antibiotics, or MHB (Oxoid, UK) for peptidomimetics to obtain 5 × 10^5 colony forming unit (CFU) ml^−1. […] Positive controls contained only microbes, and blanks contained only media. Microbial suspensions (100 µl) were added to wells, plates wrapped, and incubated at 37°C, 120 rpm for 16–20 h. After incubation, suspensions were removed, log10 diluted, and plated on Trypticase Soya Agar with phosphatidylcholine and Tween 80 to determine minimum bactericidal or fungicidal concentration (MBC or MFC). […] Geometric mean MIC of the peptoids were calculated to evaluate the broad overview of antimicrobial activity across the pathogens.
(§2) The therapeutic indices (TIs) of the compounds were calculated with the use of following formula: […]

Another experiment relates to S. aureus 117. The essentials:
(§3)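 Each strain, at 5 × 10^5 CFU ml^−1, is exposed to compound in Mueller–Hinton-based broth (cation-adjusted for antibiotics) and incubated 16–20 h, 37°C, 120 rpm. Bactericidal concentrations come from plating log10 dilutions of the wells on supplemented agar.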

The subject of the next experiment is K. pneumoniae JIE2709. The essentials:
as §3

The next experiment concerns A. baumannii ATCC 19 606. The essentials:
as §3

The subject of the next experiment is S. aureus 38. The procedure, abridged: as §3
The next experiment concerns P. aeruginosa AR-1270. The procedure, abridged: as §3
The test system of another experiment is K. pneumoniae JIE2713. The procedure, abridged:
as §3

The next experiment deals with C. auris CBS12373. Nature of the experiment: Broth microdilution MIC. The experiment is classed as cell-based, Candida auris.
Experiment [1] deals with ESKAPEE pathogens (all bacteria). Nature of the experiment: Geometric mean MIC, therapeutic index and selectivity ratio, all bacteria. The experiment is classed as cell-based. Conditions: for Geometric mean MIC, all bacteria: across the 23 ESKAPEE strains. As to the method:
as §1, §2

Where [2] appears, read: S. aureus 117, MHB (melimine/Mel4 with 0.2% BSA, 0.01% acetic acid), mean MIC.
[3] abbreviates: K. pneumoniae JIE2709, MHB (melimine/Mel4 with 0.2% BSA, 0.01% acetic acid), mean MIC.
Where [4] appears, read: A. baumannii ATCC 19 606, MHB (melimine/Mel4 with 0.2% BSA, 0.01% acetic acid), mean MIC.
Where [5] appears, read: S. aureus 38, MHB (melimine/Mel4 with 0.2% BSA, 0.01% acetic acid), mean MIC.
[6] abbreviates: P. aeruginosa AR-1270, MHB (melimine/Mel4 with 0.2% BSA, 0.01% acetic acid), mean MIC.
Setting [7] is: K. pneumoniae JIE2713, MHB (melimine/Mel4 with 0.2% BSA, 0.01% acetic acid), mean MIC.
[8] abbreviates: CBS 12 373, RPMI 1640 with MOPS, 5 × 10^3 CFU ml^−1, ≥90% reduction (≥50% for fluconazole).
Where [9] appears, read: CBS 10 913, RPMI 1640 with MOPS, 5 × 10^3 CFU ml^−1, ≥90% reduction (≥50% for fluconazole).

Where two headings read alike, the source gives them in different places. Square brackets hold non-standard residues; d marks the D form. Ends that are not written are not given here. Peptide text beside a SMILES is read from it. Nspe(4-Br) = C[C@H](NCC(=O)O)c1ccc(Br)cc1; N(tridecyl)Gly = CCCCCCCCCCCCCNCC(=O)O; Nspe = C[C@H](NCC(=O)O)c1ccccc1; Nlys = NCCCCNCC(=O)O

With `C[C@@H](c1ccc(Br)cc1)N(CC(=O)N(CCCCN)CC(=O)N(CC(=O)N(CC(=O)N(CCCCN)CC(N)=O)[C@@H](C)c1ccc(Br)cc1)[C@@H](C)c1ccccc1)C(=O)CN(C(=O)CNCCCCN)[C@@H](C)c1ccccc1` [TM12] (H-[Nlys][Nspe][Nspe(4-Br)][Nlys][Nspe][Nspe(4-Br)][Nlys]-NH2), the “Geometric mean MICE” value with Enterobacteriaceae is 47.4 µg/mL. The MIC of peptidomimetics stood at 3.3 µM in the experiment on S. aureus 117 (117); 3.9 µg/mL in the experiment on S. aureus 117 (setting [2]); 103.8 µM in the experiment on K. pneumoniae JIE2709 (JIE2709); 125 µg/mL with K. pneumoniae JIE2709 (setting [3]); 125 µg/mL with A. baumannii ATCC 19 606 (setting [4]); 103.8 µM in the experiment on A. baumannii ATCC 19 606 (ATCC 19). Moreover, the MIC of peptidomimetics with S. aureus 38 (38) was 6.5 µM; in the experiment on S. aureus 38 (setting [5]), 7.8 µg/mL; with P. aeruginosa AR-1270 (AR-1270), 103.8 µM; with P. aeruginosa AR-1270 (setting [6]), 125 µg/mL; in the experiment with K. pneumoniae JIE2713 (JIE2713) it was 103.8 µM; with K. pneumoniae JIE2713 (setting [7]), 125 µg/mL. The “MIC against C. auris” value in the experiment with C. auris CBS12373 (setting [8]) is 3.9 µg/mL; in the experiment with C. auris CBS12373 (CBS12373), 3.2 µM; with C. auris CBS10913 (setting [9]), 62.5 µg/mL; with C. auris CBS10913 (CBS10913), 51.9 µM. For the same compound, the “Geometric mean MIC, all bacteria” value in [1] was 31.2 µg/mL; in [1] (value in brackets) it was 26.0 µM. Also, in experiment [1] (bacteria), the “Fold increase in geometric mean MIC relative to TM4” value turned out to be 3 fold.

Regarding `C[C@@H](c1ccc(Br)cc1)N(CC(=O)N(CCCCN)CC(=O)N(CC(=O)N(CC(=O)N(CCCCN)CC(N)=O)[C@@H](C)c1ccc(Br)cc1)[C@@H](C)c1ccc(Br)cc1)C(=O)CN(C(=O)CNCCCCN)[C@@H](C)c1ccc(Br)cc1` [TM14] (H-[Nlys][Nspe(4-Br)][Nspe(4-Br)][Nlys][Nspe(4-Br)][Nspe(4-Br)][Nlys]-NH2), the “Geometric mean MICE” value with Enterobacteriaceae was found to be 31.3 µg/mL. Moreover, the MIC of peptidomimetics was determined as 5.7 µM in the experiment with S. aureus 117 (117); 7.8 µg/mL in the experiment on S. aureus 117 (setting [2]); 45.9 µM in the experiment on K. pneumoniae JIE2709 (JIE2709); 62.5 µg/mL in the experiment on K. pneumoniae JIE2709 (setting [3]); 31.3 µg/mL in the experiment with A. baumannii ATCC 19 606 (setting [4]); 23.0 µM in the experiment with A. baumannii ATCC 19 606 (ATCC 19). In addition, the MIC of peptidomimetics is 2.9 µM in the experiment with S. aureus 38 (38); 3.9 µg/mL in the experiment with S. aureus 38 (setting [5]); 45.9 µM in the experiment with P. aeruginosa AR-1270 (AR-1270); 62.5 µg/mL in the experiment with P. aeruginosa AR-1270 (setting [6]); 5.7 µM in the experiment on K. pneumoniae JIE2713 (JIE2713); 7.8 µg/mL in the experiment with K. pneumoniae JIE2713 (setting [7]). Besides, the “MIC against C. auris” value stood at 3.9 µg/mL with C. auris CBS12373 (setting [8]), 2.9 µM against C. auris CBS12373 (CBS12373), 15.6 µg/mL against C. auris CBS10913 (setting [9]) and 11.5 µM in the experiment with C. auris CBS10913 (CBS10913). Further, the “Geometric mean MIC, all bacteria” value was 19.9 µg/mL in [1] and 14.6 µM in experiment [1] (value in brackets).

In the case of `CCCCCCCCCCCCCNCC(=O)N(CCCCN)CC(=O)N(CC(=O)N(CC(=O)N(CCCCN)CC(=O)N(CCCCN)CC(N)=O)[C@@H](C)c1ccccc1)[C@@H](C)c1ccccc1` [TM15] (H-[N(tridecyl)Gly][Nlys][Nspe][Nspe][Nlys][Nlys]-NH2), in the experiment with Enterobacteriaceae, the “Geometric mean MICE” value stood at 50.8 µg/mL. The MIC of peptidomimetics is 8.1 µM in the experiment on S. aureus 117 (117); 7.8 µg/mL in the experiment on S. aureus 117 (setting [2]); 129.8 µM with K. pneumoniae JIE2709 (JIE2709); 125 µg/mL in the experiment on K. pneumoniae JIE2709 (setting [3]); 62.5 µg/mL with A. baumannii ATCC 19 606 (setting [4]); 64.9 µM in the experiment with A. baumannii ATCC 19 606 (ATCC 19). In addition, the MIC of peptidomimetics in the experiment on S. aureus 38 (38) is 8.1 µM; in the experiment on S. aureus 38 (setting [5]) it was 7.8 µg/mL; in the experiment on P. aeruginosa AR-1270 (AR-1270), 32.5 µM; in the experiment on P. aeruginosa AR-1270 (setting [6]), 31.3 µg/mL; with K. pneumoniae JIE2713 (JIE2713) it was 129.8 µM; in the experiment with K. pneumoniae JIE2713 (setting [7]) it was 125 µg/mL. The “MIC against C. auris” value against C. auris CBS12373 (setting [8]) turned out to be 3.9 µg/mL; in the experiment on C. auris CBS12373 (CBS12373), 4.0 µM; in the experiment on C. auris CBS10913 (setting [9]), 250 µg/mL; with C. auris CBS10913 (CBS10913) it was 259.6 µM. Besides, the “Geometric mean MIC, all bacteria” value is 32.2 µg/mL in experiment [1] and 33.4 µM in experiment [1] (value in brackets). The “Fold increase in geometric mean MIC relative to TM8” value in experiment [1] (bacteria) was determined as 4 fold.

With KNKRKRRRRRRGGRRRR [Mel4], the “Geometric mean MICE” value in the experiment on Enterobacteriaceae was determined as 164.9 µg/mL. Moreover, the MIC of peptidomimetics with S. aureus 117 (setting [2]) amounted to 62.5 µg/mL; with K. pneumoniae JIE2709 (setting [3]), 62.5 µg/mL; in the experiment on A. baumannii ATCC 19 606 (setting [4]), 125 µg/mL; in the experiment on S. aureus 38 (setting [5]), 62.5 µg/mL; with P. aeruginosa AR-1270 (setting [6]), 500 µg/mL; in the experiment with K. pneumoniae JIE2713 (setting [7]), 250 µg/mL. Also, the results for the “MIC against C. auris” value with C. auris CBS12373 (setting [8]) and in the experiment on C. auris CBS10913 (setting [9]) were 3.9 µg/mL and 125 µg/mL, respectively. Besides, the “Geometric mean MIC, all bacteria” value in experiment [1] stood at 149.8 µg/mL; in experiment [1] (value in brackets) it was 63.8 µM.

Regarding “TLISWIKNKRKQRPRVSRRRRRRGGRRRR [Melimine]”, in the experiment on Enterobacteriaceae, the “Geometric mean MICE” value was found to be 189.5 µg/mL. Moreover, the MIC of peptidomimetics was determined as 31.3 µg/mL with S. aureus 117 (setting [2]); 8.2 µM in the experiment with S. aureus 117 (S. aureus 117, value in brackets); 500 µg/mL in the experiment on K. pneumoniae JIE2709 (setting [3]); 62.5 µg/mL in the experiment with A. baumannii ATCC 19 606 (setting [4]); 16.5 µM in the experiment with A. baumannii ATCC 19 606 (A. baumannii ATCC 19 606, value in brackets); 31.3 µg/mL in the experiment with S. aureus 38 (setting [5]). The MIC of peptidomimetics with S. aureus 38 (S. aureus 38, value in brackets) is 8.2 µM; in the experiment on P. aeruginosa AR-1270 (setting [6]), 500 µg/mL; with K. pneumoniae JIE2713 (setting [7]), 125 µg/mL; in the experiment with K. pneumoniae JIE2713 (K. pneumoniae JIE2713, value in brackets), 33.0 µM. For the same compound, the “MIC against C. auris” value against C. auris CBS12373 (setting [8]) was 3.9 µg/mL; in the experiment on C. auris CBS12373 (CBS 12 373, value in brackets), 1.03 µM; in the experiment on C. auris CBS10913 (setting [9]) it was 125 µg/mL; against C. auris CBS10913 (CBS 10 913, value in brackets), 33.0 µM. In addition, the “Geometric mean MIC, all bacteria” value in experiment [1] is 132.8 µg/mL; in [1] (value in brackets) it was 35.1 µM.
